Among the data in US10336702B2, “Pharmaceutically active compounds” (BERGENBIO ASA, priority 2015, dated 2019) are IC50 values, retold here.

One assay has as its target T1, Akt1 (Homo sapiens, UniProt P31749).
T1 construct: unspecified tag, removed (detagged) (cleaved yes); purchased SignalChem and Proteros (Akt1); Merck Millipore (PDK1) 14-452 (PDK1); none given for Akt1
In words: Akt activation assay (PDK1-mediated activation, LANCE Ultra crosstide TR-FRET), Akt1. The assay is classed as biochemical. The note with it: read-out: Biological Assay 1 IC50 (nM) Akt1. Put shortly: (§1)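 Compound + Akt preinc.; start w/ PDK1 5 nM, DOPS/DOPC 5.5 μM each, PIP3 0.55 μM, ATP 100 μM, Ulight-crosstide 100 nM; HEPES pH 7.5, 10 mM MgCl2, 2 mM DTT, 1% DMSO; 30 min; EDTA stop; Eu-Ab TR-FRET; 4-PL IC50.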
On the technique in general: TR-FRET usually uses a lanthanide donor and a delayed reading to cut background.

Another assay concerns the target T2, Akt2 (Homo sapiens, UniProt P31751).
T2 construct: unspecified tag, removed (detagged) (cleaved yes); purchased SignalChem and Proteros (Akt2); Merck Millipore (PDK1) 14-452 (PDK1); none given for Akt2
The assay can be described thus: Akt activation assay (PDK1-mediated activation, LANCE Ultra crosstide TR-FRET), Akt2. Format: biochemical. The note with it: read-out: Biological Assay 1 IC50 (nM) Akt2. The essentials: as §1

For the next assay, the target named is T3, Akt3 (Homo sapiens, UniProt Q9Y243).
T3 construct: unspecified tag, removed (detagged) (cleaved yes); purchased SignalChem and Proteros (Akt3); Merck Millipore (PDK1) 14-452 (PDK1); none given for Akt3
The assay can be described thus: Akt activation assay (PDK1-mediated activation, LANCE Ultra crosstide TR-FRET), Akt3. Format: biochemical. The note with it: read-out: Biological Assay 1 IC50 (nM) Akt3. The essentials:
as §1

A further assay has as its target T4, p-Akt1 in LNCaP cells (Homo sapiens, UniProt P31749).
T4 construct: SureFire assays to detect cellular p-Akt1, p-Akt2 and p-Akt3 levels in WM115 cells (Akt2/3) and LNCaP cells (Akt1); endogenous in cells; host or cells: LNCaP (ECACC 89110211)
In words: Phospho-Akt cellular SureFire assay, p-Akt1 in LNCaP cells. Format: cell-based. The note with it: read-out: Biological Assay 2 IC50 (nM) Akt1 LNCaP. The essentials:
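LNCaP cells, 5×10^4/well, seeded overnight, switched to 0.1% FBS medium without insulin stimulation, then compound for 15 min at 37 °C (0.3% DMSO). Lysate p-Akt1 (pThr308) by AlphaScreen SureFire, two 2 h incubations at room temperature; IC50 by 4-parameter fit.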

The next assay has as its target T5, p-Akt2 in WM115 cells (Homo sapiens, UniProt P31751).
T5 construct: SureFire assays to detect cellular p-Akt1, p-Akt2 and p-Akt3 levels in WM115 cells (Akt2/3) and LNCaP cells (Akt1); endogenous in cells; host or cells: WM115 (ECACC 91061232), insulin-stimulated
The assay can be described thus: Phospho-Akt cellular SureFire assay, p-Akt2 in WM115 cells. Format: cell-based. The note with it: insulin stimulated, read-out: Biological Assay 2 IC50 (nM) Akt2 WM115. Put shortly:
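WM115 cells in 0.1% FBS medium stimulated 10 min with 100 nM insulin, then exposed to compound for 15 min at 37° C (0.3% DMSO final). Lysates assayed by AlphaScreen with anti-(pThr308)Akt and isoform-specific total Akt2 antibodies; IC50 from 4-parameter fit.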

Another assay addresses T6, p-Akt3 in WM115 cells (Homo sapiens, UniProt Q9Y243).
T6 construct: SureFire assays to detect cellular p-Akt1, p-Akt2 and p-Akt3 levels in WM115 cells (Akt2/3) and LNCaP cells (Akt1); endogenous in cells; host or cells: WM115 (ECACC 91061232), insulin-stimulated
The assay can be described thus: Phospho-Akt cellular SureFire assay, p-Akt3 in WM115 cells. The note with it: insulin stimulated, read-out: Biological Assay 2 IC50 (nM) Akt3 WM115. The assay is classed as cell-based. Put shortly:
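WM115 cells were serum-reduced to 0.1% FBS, stimulated with 100 nM insulin for 10 min, then exposed to compound (0.3% DMSO) for 15 min at 37 °C. Lysates were assayed for Thr308-phosphorylated Akt3 by AlphaScreen SureFire using an isoform-specific total Akt3 capture antibody. IC50 was derived from a 4-parameter fit.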

T1 sequence (P31749 whole entry): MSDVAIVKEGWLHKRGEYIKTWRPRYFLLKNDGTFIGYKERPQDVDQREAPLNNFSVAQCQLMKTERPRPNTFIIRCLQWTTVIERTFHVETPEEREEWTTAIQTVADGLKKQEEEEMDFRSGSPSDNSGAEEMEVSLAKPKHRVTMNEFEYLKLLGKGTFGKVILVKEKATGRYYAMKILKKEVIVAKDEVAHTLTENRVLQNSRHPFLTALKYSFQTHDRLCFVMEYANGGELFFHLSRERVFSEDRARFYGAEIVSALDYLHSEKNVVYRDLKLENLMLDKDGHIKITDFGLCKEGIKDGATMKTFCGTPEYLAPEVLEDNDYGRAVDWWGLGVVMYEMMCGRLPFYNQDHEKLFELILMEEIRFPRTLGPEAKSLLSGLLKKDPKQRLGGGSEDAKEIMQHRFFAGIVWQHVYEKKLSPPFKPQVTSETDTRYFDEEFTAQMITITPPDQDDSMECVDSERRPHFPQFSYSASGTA
T4 sequence (P31749 whole entry): as above
T6 sequence (Q9Y243 whole entry): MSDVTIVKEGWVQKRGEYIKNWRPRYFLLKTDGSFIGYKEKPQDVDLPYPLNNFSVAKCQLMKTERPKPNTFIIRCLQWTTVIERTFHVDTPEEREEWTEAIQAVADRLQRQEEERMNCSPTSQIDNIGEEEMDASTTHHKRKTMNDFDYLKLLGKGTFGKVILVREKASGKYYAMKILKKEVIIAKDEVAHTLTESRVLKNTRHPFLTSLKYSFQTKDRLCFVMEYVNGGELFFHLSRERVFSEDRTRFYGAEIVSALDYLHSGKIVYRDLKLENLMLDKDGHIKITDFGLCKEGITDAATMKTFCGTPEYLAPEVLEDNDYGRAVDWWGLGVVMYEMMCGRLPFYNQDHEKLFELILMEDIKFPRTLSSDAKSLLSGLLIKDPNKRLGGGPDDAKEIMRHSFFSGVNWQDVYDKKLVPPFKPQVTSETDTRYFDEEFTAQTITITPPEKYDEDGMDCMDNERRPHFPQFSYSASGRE
T3 sequence (Q9Y243 whole entry): as above
T2 sequence (P31751 whole entry): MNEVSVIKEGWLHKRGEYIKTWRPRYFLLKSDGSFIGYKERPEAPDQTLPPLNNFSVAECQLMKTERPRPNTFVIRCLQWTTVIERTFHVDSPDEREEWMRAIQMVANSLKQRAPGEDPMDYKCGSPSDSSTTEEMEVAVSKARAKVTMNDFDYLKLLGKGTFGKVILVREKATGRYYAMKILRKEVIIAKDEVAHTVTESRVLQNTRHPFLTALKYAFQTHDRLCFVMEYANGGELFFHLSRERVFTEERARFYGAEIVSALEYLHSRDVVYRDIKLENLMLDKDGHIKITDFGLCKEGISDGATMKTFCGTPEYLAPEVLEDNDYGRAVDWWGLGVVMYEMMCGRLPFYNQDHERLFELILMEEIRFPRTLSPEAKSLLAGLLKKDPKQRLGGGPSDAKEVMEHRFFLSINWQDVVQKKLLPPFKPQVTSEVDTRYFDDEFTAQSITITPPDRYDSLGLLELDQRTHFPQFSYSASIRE
T5 sequence (P31751 whole entry): as above

As to `CC(=O)N(C)[C@H]1CC[C@H](CC(=O)Nc2cc(-c3ccsc3)c(-c3ccc(C4(N)CC4)c(F)c3)nn2)CC1` [Example 92, N-(6-(4-(1-aminocyclopropyl)-3-fluorophenyl)-5-(thiophen-3-yl)pyridazin-3-yl)-2-(trans-4-(N-methylacetamido)cyclohexyl)acetamide], the IC50 at Akt1 is above 30000 nM; on Akt2 it was 14000 nM; on Akt3, 170 nM; at p-Akt1 in LNCaP cells, above 30000 nM; at p-Akt2 in WM115 cells, above 30000 nM; at p-Akt3 in WM115 cells, 230 nM.
Turning to `CC(=O)N(C)[C@H]1CC[C@H](CC(=O)Nc2cc(-c3ccccc3)c(-c3ccc(C(C)(C)N)cc3)nn2)CC1` [Example 30, N-(6-(4-(2-aminopropan-2-yl)phenyl)-5-phenylpyridazin-3-yl)-2-(trans-4-(N-methylacetamido)cyclohexyl)acetamide], the half-inhibitory concentration (IC50) was above 30000 nM at Akt1; 12000 nM on Akt2; 470 nM on Akt3; above 30000 nM on p-Akt1 in LNCaP cells; 6800 nM on p-Akt2 in WM115 cells; 72 nM on p-Akt3 in WM115 cells.
Consider `CC(=O)N(C)[C@H]1CC[C@H](CC(=O)Nc2cc(-c3ccsc3)c(-c3ccc([C@]4(N)C[C@H](F)C4)cc3)nn2)CC1` [Example 75, N-(6-(4-(trans-1-amino-3-fluorocyclobutyl)phenyl)-5-(thiophen-3-yl)pyridazin-3-yl)-2-(trans-4-(N-methylacetamido)cyclohexyl)acetamide], for which the IC50 is above 16000 nM at Akt1; 580 nM at Akt2; 18 nM on Akt3; above 30000 nM at p-Akt1 in LNCaP cells; 3200 nM on p-Akt2 in WM115 cells; 46 nM at p-Akt3 in WM115 cells.
For the molecule `CC(=O)N(CC(F)(F)F)[C@H]1CC[C@H](CC(=O)Nc2cc(-c3ccccc3)c(-c3ccc([C@]4(N)C[C@](C)(O)C4)cc3)cn2)CC1` [Example 117, N-(5-(4-(trans-1-amino-3-hydroxy-3-methylcyclobutyl)phenyl)-4-phenylpyridin-2-yl)-2-(trans-4-(N-(2,2,2-trifluoroethyl)acetamido)cyclohexyl)acetamide], the 50% inhibitory concentration (IC50) on Akt1 was above 24000 nM; at Akt2, 290 nM; on Akt3 it was 42 nM; at p-Akt1 in LNCaP cells it was 12000 nM; at p-Akt2 in WM115 cells, 980 nM; at p-Akt3 in WM115 cells it was 33 nM.
With `NC1(c2ccc(-c3cnc(NC(=O)C[C@H]4CC[C@H](N5CCOC5=O)CC4)cc3-c3ccccc3)cc2)CC1` [Example A51, N-(5-(4-(1-aminocyclopropyl)phenyl)-4-phenylpyridin-2-yl)-2-(trans-4-(2-oxooxazolidin-3-yl)cyclohexyl)acetamide], the IC50 was above 30000 nM at Akt1; 340 nM on Akt2; 42 nM at Akt3; above 30000 nM at p-Akt1 in LNCaP cells; 2000 nM at p-Akt2 in WM115 cells; 150 nM at p-Akt3 in WM115 cells.
For `CC(=O)N(C)[C@H]1CC[C@H](CC(=O)Nc2cnc(-c3ccc([C@H](C)N)cc3)c(-c3ccccc3)c2)CC1` [Example 7, N-(6-(4-((S)-1-aminoethyl)phenyl)-5-phenylpyridin-3-yl)-2-(trans-4-(N-methylacetamido)cyclohexyl)acetamide], the IC50 on Akt1 was above 30000 nM; on Akt2, 9200 nM; on Akt3, 350 nM; at p-Akt1 in LNCaP cells it was above 30000 nM; on p-Akt2 in WM115 cells, 10000 nM; at p-Akt3 in WM115 cells it was 300 nM.
Take `CC(=O)N(C)[C@H]1CC[C@H](CC(=O)Nc2cc(-c3ccccc3F)c(-c3ccc(C4(N)CCC4)cc3)cn2)CC1` [Example A62, N-(5-(4-(1-aminocyclobutyl)phenyl)-4-(2-fluorophenyl)pyridin-2-yl)-2-(trans-4-(N-methylacetamido)cyclohexyl)acetamide]: the IC50 at Akt1 was above 30000 nM; on Akt2, 1100 nM; at Akt3 it was 57 nM; at p-Akt1 in LNCaP cells, 7100 nM; on p-Akt2 in WM115 cells it was 1200 nM; at p-Akt3 in WM115 cells, 81 nM.
As to “N-(6-(4-(trans-1-amino-3-hydroxy-3-methylcyclobutyl)phenyl)-5-phenylpyridin-3-yl)-2-(trans-4-(N-ethylacetamido)cyclohexyl)acetamide [Example 119]”, the IC50 was 5900 nM at Akt1; 70 nM at Akt2; 5 nM at Akt3; 2300 nM at p-Akt1 in LNCaP cells; 410 nM at p-Akt2 in WM115 cells; 22 nM at p-Akt3 in WM115 cells.
In the case of `CC(C)(N)c1ccc(-c2nnc(NC(=O)C[C@H]3CC[C@H](N4CCOC4=O)CC3)cc2-c2ccsc2)cc1` [Example 80, N-(6-(4-(2-aminopropan-2-yl)phenyl)-5-(thiophen-3-yl)pyridazin-3-yl)-2-(trans-4-(2-oxooxazolidin-3-yl)cyclohexyl)acetamide], the half-inhibitory concentration (IC50) on Akt1 was above 30000 nM; at Akt2, 8900 nM; at Akt3 it was 130 nM; on p-Akt1 in LNCaP cells, above 30000 nM; at p-Akt2 in WM115 cells it was 18000 nM; on p-Akt3 in WM115 cells, 150 nM.
Turning to `CC(=O)N(C)[C@H]1CC[C@H](CC(=O)Nc2cnc(-c3ccc([C@]4(N)C[C@H](F)C4)cc3)c(-c3ccccc3)c2)CC1` [Example 32, N-(6-(4-(trans-1-amino-3-fluorocyclobutyl)phenyl)-5-phenylpyridin-3-yl)-2-(trans-4-(N-methylacetamido)cyclohexyl)acetamide], the IC50 at Akt1 was 2000 nM; on Akt2, 470 nM; at Akt3 it was 34 nM; on p-Akt1 in LNCaP cells it was 6900 nM; on p-Akt2 in WM115 cells it was 1400 nM; on p-Akt3 in WM115 cells, 36 nM.
In the case of `CN(C(=O)C1CC1)[C@H]1CC[C@H](CC(=O)Nc2cnc(-c3ccc(C(C)(C)N)c(F)c3)c(-c3ccccc3)c2)CC1` [Example 53, N-(trans-4-(2-((6-(4-(2-aminopropan-2-yl)-3-fluorophenyl)-5-phenylpyridin-3-yl)amino)-2-oxoethyl)cyclohexyl)-N-methylcyclopropanecarboxamide], the IC50 at Akt1 was above 30000 nM; at Akt2, above 30000 nM; at Akt3, 4100 nM; on p-Akt1 in LNCaP cells, above 30000 nM; at p-Akt2 in WM115 cells, 18000 nM; on p-Akt3 in WM115 cells it was 680 nM.
Turning to `CCC(=O)N(C)[C@H]1CC[C@H](CC(=O)Nc2cc(-c3ccccc3)c(-c3ccc(C4(N)CC4)cc3)cn2)CC1` [Example A81, N-(trans-4-(2-((5-(4-(1-aminocyclopropyl)phenyl)-4-phenylpyridin-2-yl)amino)-2-oxoethyl)cyclohexyl)-N-methylpropionamide], the IC50 at Akt1 was above 30000 nM; on Akt2, 1200 nM; on Akt3 it was 69 nM; at p-Akt1 in LNCaP cells it was above 30000 nM; at p-Akt2 in WM115 cells it was 9100 nM; at p-Akt3 in WM115 cells it was 390 nM.
`N[C@]1(c2ccc(-c3nnc(NC(=O)C[C@H]4CC[C@H](N5CCOC5=O)CC4)cc3-c3ccsc3)cc2)C[C@@H](F)C1` [Example 79, N-(6-(4-(trans-1-amino-3-fluorocyclobutyl)phenyl)-5-(thiophen-3-yl)pyridazin-3-yl)-2-(trans-4-(2-oxooxazolidin-3-yl)cyclohexyl)acetamide]: the IC50 at Akt1 is above 30000 nM; at Akt2 it was 590 nM; at Akt3, 26 nM; on p-Akt1 in LNCaP cells, above 30000 nM; on p-Akt2 in WM115 cells, above 30000 nM; on p-Akt3 in WM115 cells, 59 nM.
For `CC(=O)N(C)[C@H]1CC[C@H](CC(=O)Nc2cc(-c3ccccn3)c(-c3ccc(C4(N)CCC4)cc3)cn2)CC1` [Example 76, N-(5′-(4-(1-aminocyclobutyl)phenyl)-[2,4′-bipyridin]-2′-yl)-2-(trans-4-(N-methylacetamido)cyclohexyl)acetamide], the IC50 is above 30000 nM on Akt1; above 30000 nM at Akt2; 1000 nM on Akt3; above 30000 nM at p-Akt1 in LNCaP cells; above 30000 nM on p-Akt2 in WM115 cells; 140 nM on p-Akt3 in WM115 cells.

One may read the IC50 as the midpoint of a concentration-inhibition curve.
